The subject of data set [1] is recurrent anaplastic oligodendroglioma. The data set is described as follows: Patient dog with spontaneous recurrent anaplastic oligodendroglioma, vector by CED plus 5-FC. Particulars: second cycle 160 mg/kg/day by mouth, stopped after fifth day.
The subject of data set [2] is Mouse CT26 tumor explants. Kind of data set: 5-FC cell killing assay (MTS) on CT26 tumor explants. It counts as cell-based. Particulars: explant animal 31: CT26, AC3-yCD2(V) E5 + 5-FC, 3.5 5-FC dosings.
For the next data set, the system named is U-87 cells. The data set is described as follows: yCD protein level in infected U-87 cells (FIG. 4). It is filed as cell-based, human.

Entries after “also recorded” stand apart in the source; their conditions may differ.

Consider `Nc1nc(=O)[nH]cc1F` [Vector 5-FC, 5-fluorocytosine], for which, in data set [1], the adverse event result was “development of rash”. Moreover, the “5-FC sensitivity IC50 (mM)” value in data set [2] is recorded as “poorly responsive; also recorded: Not sensitive”.

B1: yCD2 protein: yeast cytosine deaminase with A23L/V108I/I140L substitutions, human codon optimized gene (SEQ ID NO:4) (protein, UniProt Q12178 1-158, looked up, variant A23L V108I I140L)
Cytosine deaminase: MVTGGMASKWDQKGMDIAYEEALLGYKEGGVPIGGCLINNKDGSVLGRGHNMRFQKGSATLHGEISTLENCGRLEGKVYKDTTLYTTLSPCDMCTGAIIMYGIPRCVIGENVNFKSKGEKYLQTRGHEVVVVDDERCKKLMKQFIDERPQDWFEDIGE
With B1, in the data set on U-87 cells, the “CD protein level compared to wild type yCD protein” value is given as “higher levels”.
